Experimental findings from ChEMBL document CHEMBL1129849, “Synthesis and evaluation of delta lactams as nonpeptide HIV-protease inhibitors” (Bioorg Med Chem Lett, 1997) are described below.

The experiment concerns the target Human immunodeficiency virus type 1 protease (Human immunodeficiency virus 1, UniProt Q72874). Briefly: Compound was tested for the inhibitory activity against HIV-protease.
By Ki is commonly meant a measure of affinity in units of concentration, obtained from inhibition or displacement. A low value points to tighter binding. The molecule `O=C1N[C@H](CCc2ccccc2)[C@@H](O)[C@@H](Cc2ccccc2)N1Cc1ccccc1` displayed a Ki of 0.066 µM. In other words, the double-digit nanomolar range. The result for `O=C1N(Cc2ccccc2)C[C@H](O)[C@@H](Cc2ccccc2)N1Cc1ccccc1` reads 11 µM; that for `O=C1[C@@H](Cc2ccccc2)C[C@@H](O)[C@@H](Cc2ccccc2)N1Cc1ccccc1`, 9.4 µM.

For `O=C1N(Cc2ccccc2)C[C@@H](O)[C@@H](Cc2ccccc2)N1Cc1ccccc1`, the affinity corresponds to a Ki of 0.0025 µM.
